Measurements reported in US9750723B2, “Prevention and treatment of non-alcoholic fatty liver disease” (Ohio University, priority 2014, dated 2017).

Experiments:
[1] = tested on: patient having NAFLD; assay: Therapeutic use of phenylmethimazole to treat NAFLD (Example 5); format: in vivo, human; details: once daily oral dose of 3 mg/kg for 16 weeks, contemplated result
Procedure: Experimental Protocol. A patient having NAFLD is prescribed phenylmethimazole to reduce the fat content in their liver. After determination of a baseline level of fat content in their liver, the patient takes a once daily oral dose of 3 mg/kg of body weight of phenylmethimazole for a period of 16 weeks, during which fat content in their liver tissue is determined via liver function testing, liver ultrasound, and liver biopsy.

[2] = tested on: C57BL/6J mice placed on an HFD; assay: Evaluation of phenylmethimazole in treating NAFLD in C57BL/6J mice fed high fat diet (Example 3); format: in vivo; details: HFD mice with NAFLD, ip once daily 1, 3 or 10 mg/kg/day for 16 weeks (up to 24 weeks); contemplated result
Procedure: Experimental Protocol. C57BL/6J mice are placed on an HFD containing 60% fat (by % Kcal) (Diet #D12492, Research Diets, Inc.) for a period of weeks (as determined by the results of Example 1) until development of NAFLD is observed and clearly distinguishable from LFD-fed mice of the same age (between 4-8 weeks). At the time or after NAFLD is observed, once daily ip injections of phenylmethimazole (i.e., C10), DMSO, or sham are administered. 5 mice are then euthanized weekly thereafter to characterize the effects of C10, DMSO, and/or sham on treatment of NAFLD for the period of 16 weeks post-initiation of C10, DMSO, and sham administration. The period of time for which treatment is administered will be extended to 24 weeks if no effect of C10 administration on treatment of NAFLD is observed. The following Table further illustrates the experimental design: […]
NAFLD is evaluated in the liver of the HFD mice macroscopically, microscopically, and molecularly. […] Then, the liver of each mouse is split in half, wherein one half is used for microscopic analysis of NAFLD and the remaining half is used for molecular analysis of NAFLD (i.e., quantification of triglycerides). Quantification of triglycerides is performed in accordance with the general protocol described in Example 1.

[3] = tested on: C57BL/6J mice on the HFD; assay: Evaluation of phenylmethimazole in preventing NAFLD in mice (Example 2); format: in vivo
Procedure: Triglycerides were quantified in accordance with the following general protocol, based upon the Salmon and Flatt Method of Liver Saponification. 50-100 mg of liver tissue was placed into an Eppendorf tube and weighed. Equal volume per weight of 3 M KOH (in 65% EtOH) was added to the tube and vortexed. The tube was placed at 70° C. for 1 hr to activate digestion. The tubes were vortexed every 15 minutes. The tube was set at room temperature overnight to allow for complete digestion, and was vortexed periodically. The sample was diluted to a final concentration of 100 mg of liver tissue per 600 μl fluid; the sample was diluted by adding 2 M Tris-HCl (un-pHed) to a final concentration of 50 mM. Where a second dilution was required, the sample was diluted using 50 mM Tris-HCl (pH 7.5). Triglycerides-GPO (0.5 mL, liquid; Pointe Scientific Cat. No. T7532-500; Fisher Scientific, Pittsburgh, Pa.) were aliquoted into Eppendorf tubes and warmed in a 37° C. water bath for 5-10 minutes. Glycerol standards (0, 1, 2.5, 5, 7.5 and 10 mmol/L) were made by diluting 10 mmol/L stock of glycerol, such as, e.g., with 50 mM Tris-HCl. 5 μL of the sample and glycerol standards (0, 1, 2.5, 5, 7.5 and 10 mmol/L) were added to 0.5 mL of the triglycerides-GPO, mixed, and incubated at room temperature for 5 minutes. The mixture was then vortexed and added (200 μL) to each well of a 96-well flat-bottom ELISA plate (in duplicate). Absorbance (i.e., optical density) was read at 500 nm. The concentrations of the samples were determined via use of a plot of glycerol standards concentration (mmol/L) with respect to optical density (i.e., O.D.) at 500 nm. The concentration of glycerol (mg glycerol/g tissue) was then calculated and triglyceride concentration was determined, in accordance with calculations known to those of ordinary skill in the art.
Experimental Protocol. 7 week old male C57BL/6J mice were placed on either a LFD (i.e., having a fat content of 10%, N=8) or a HFD (i.e., having a fat content of 60%, N=40). The mice placed on the LFD served as a control. […]
After 18 weeks, all of the C57BL/6J mice were euthanized. […] More specifically, NAFLD was evaluated in the liver tissue of the euthanized C57BL/6J mice microscopically and molecularly. Following euthanasia, the liver of each mouse was removed and divided, wherein one portion was used for the microscopic analysis of NAFLD and another portion was used for the molecular analysis of NAFLD (i.e., quantification of triglycerides). Quantification of triglycerides was performed in accordance with the general protocol described in Example 1.

[4] = tested on: patient at risk for developing NAFLD; assay: Therapeutic use of phenylmethimazole to prevent development of NAFLD (Example 4); format: in vivo, human; details: once daily oral dose of 1 mg/kg chronically, contemplated result
Procedure: Experimental Protocol. A patient at risk for developing NAFLD is prescribed phenylmethimazole to prevent excess accumulation of fat. The patient takes a once daily oral dose of 1 mg/kg of body weight of phenylmethimazole chronically, during which fat content in the liver is determined via liver function testing, liver ultrasound, and liver biopsy.

Cn1c(-c2ccccc2)cnc1S [phenylmethimazole, 5-Phenylmethimazole]
fat content in the patient's liver [1]: reduced relative to the baseline level
fat content in the liver tissue of the mice [2]: reduced relative to a baseline level
fatty liver disease, macroscopically observed in liver tissue ([3]; ip 0.1 mg/kg, 1 mg/kg or 10 mg/kg once daily for 18 weeks, compared to HFD mice with sham injection or DMSO): much less fatty liver disease despite obesity
triglyceride concentration in liver tissue (FIG. 4) ([3]; ip 1 mg/kg or 10 mg/kg once daily for 18 weeks, compared to HFD mice with no phenylmethimazole): lower triglyceride concentration
prevention of NAFLD ([3]; ip 0.1, 1, 10 mg/kg once daily for 18 weeks): prevented NAFLD in the mice fed the HFD in a dose-dependent manner
fatty liver disease, microscopic observation of liver tissue (FIG. 3(B)-(D)) ([3]; ip 0.1, 1 or 10 mg/kg once daily for 18 weeks, compared to HFD mice with sham injection or DMSO): much less fatty liver disease
excess accumulation of fat in the liver [4]: no excess accumulation of fat has occurred
